Laboratory results: US7820623B2 (priority 2006, dated 2010)
Read-outs that look alike come from different tables or passages of the source. Bridge positions count the residues as written; N and C are the ends. Square brackets hold non-standard residues; d marks the D form. Peptide text beside a SMILES is read from it. 1Nal = N[C@@H](Cc1cccc2ccccc12)C(=O)O

Experiments:
[1] = system: thapsigargin-induced IL-2 production in human whole blood
[2] = system: thapsigargin-induced IFN-g production in human whole blood; assay type: cell-based
[3] = read-out: Analogue Activity (IC50) WB/IL-2
[4] = read-out: Analogue Activity (IC50) WB/IFNg

## CC[C@H](C)[C@@H]1NC(=O)[C@H](CCCCN)NC(=O)[C@@H](NC(=O)[C@H](CCCCN)NC(=O)[C@@H](NC(=O)[C@H](CC(N)=O)NC(=O)[C@@H](NC(=O)[C@@H](NC(=O)[C@@H](NC(=O)CN)C(C)C)[C@@H](C)CC)[C@@H](C)CC)C(C)C)CSSC[C@@H]2NC(=O)[C@H](Cc3cccc4ccccc34)NC(=O)CNC(=O)[C@H](Cc3ccccc3)NC(=O)[C@H](CCCNC(=N)N)NC(=O)[C@H](CCSC)NC(=O)CNC(=O)[C@H](C)NC(=O)[C@H](CCCCN)NC(=O)[C@H](CCCCN)NC(=O)[C@@H]3CSSC[C@@H](C(=O)N[C@H](C(=O)N4CCC[C@H]4C(=O)N[C@@H](CCCCN)C(=O)O)[C@@H](C)O)NC(=O)[C@H](Cc4c[nH]cn4)NC(=O)[C@H](CSSC[C@H](NC(=O)[C@H](CCC(N)=O)NC(=O)[C@H](CCCNC(=N)N)NC(=O)[C@H](CO)NC1=O)C(=O)N[C@@H](CC(C)C)C(=O)N[C@@H](CCC(=O)O)C(=O)N1CCC[C@H]1C(=O)N3)NC(=O)[C@H](CCCCN)NC(=O)CNC(=O)[C@H](CC(N)=O)NC(=O)[C@H](CCSC)NC2=O [K27Nal] (H-GVIINVKCKISRQCLEPCKKAGMRFG[1Nal]CMNGKCHCTPK-OH; disulfide 8-28, 14-33, 18-35)
[1]; [3]
  IC50: 15 nM
[2]; [4]
  IC50: 27 nM

## CC[C@H](C)[C@H](NC(=O)[C@H](C)NC(=O)CN)C(=O)N[C@H](C(=O)N[C@@H](CC(N)=O)C(=O)N[C@H](C(=O)N[C@@H](CCCCN)C(=O)N[C@H]1CSSC[C@@H]2NC(=O)[C@H](CCCCN)NC(=O)CNC(=O)[C@H](Cc3ccccc3)NC(=O)[C@H](CCCNC(=N)N)NC(=O)[C@H](CCSC)NC(=O)CNC(=O)[C@H](C)NC(=O)[C@H](CCCCN)NC(=O)[C@H](CCCCN)NC(=O)[C@@H]3CSSC[C@@H](C(=O)N[C@H](C(=O)N4CCC[C@H]4C(=O)N[C@@H](CCCCN)C(=O)O)[C@@H](C)O)NC(=O)[C@H](Cc4c[nH]cn4)NC(=O)[C@H](CSSC[C@H](NC(=O)[C@H](CCC(N)=O)NC(=O)[C@H](CCCNC(=N)N)NC(=O)[C@H](CO)NC(=O)[C@H]([C@@H](C)CC)NC(=O)[C@H](CCCCN)NC1=O)C(=O)N[C@@H](CC(C)C)C(=O)N[C@@H](CCC(=O)O)C(=O)N1CCC[C@H]1C(=O)N3)NC(=O)[C@H](CCCCN)NC(=O)CNC(=O)[C@H](CC(N)=O)NC(=O)[C@H](CCSC)NC2=O)C(C)C)[C@@H](C)CC [V2A] (H-GAIINVKCKISRQCLEPCKKAGMRFGKCMNGKCHCTPK-OH; disulfide 8-28, 14-33, 18-35)
[1]; [3]
  IC50: 0.0884 nM
[2]; [4]
  IC50: 0.104 nM

## GVIINVKCKISRQCLEPCKKAGMRFGKCANGKCHCTPK [Ala-29 (SEQ ID No: 1424)]
[1]; read-out: Average IC50 IL-2
  IC50: 0.447 nM
[2]; read-out: Average IC50 IFNg
  IC50: 0.292 nM

## CC[C@H](C)[C@@H]1NC(=O)[C@H](CCCCN)NC(=O)[C@@H](NC(=O)[C@H](CCCCN)NC(=O)[C@@H](NC(=O)[C@H](CC(N)=O)NC(=O)[C@@H](NC(=O)[C@@H](NC(=O)[C@@H](NC(=O)CN)C(C)C)[C@@H](C)CC)[C@@H](C)CC)C(C)C)CSSC[C@@H]2NC(=O)[C@H](CCCCN)NC(=O)CNC(=O)[C@H](Cc3ccccc3)NC(=O)[C@H](CCCNC(=N)N)NC(=O)[C@H](CCSC)NC(=O)[C@H](CCCNC(=N)N)NC(=O)[C@H](C)NC(=O)[C@H](CCCCN)NC(=O)[C@H](CCCCN)NC(=O)[C@@H]3CSSC[C@@H](C(=O)N[C@H](C(=O)N4CCC[C@H]4C(=O)N[C@@H](CCCCN)C(=O)O)[C@@H](C)O)NC(=O)[C@H](Cc4c[nH]cn4)NC(=O)[C@H](CSSC[C@H](NC(=O)[C@H](CCC(N)=O)NC(=O)[C@H](CCCNC(=N)N)NC(=O)[C@H](CO)NC1=O)C(=O)N[C@@H](CC(C)C)C(=O)N[C@@H](CCC(=O)O)C(=O)N1CCC[C@H]1C(=O)N3)NC(=O)[C@H](CCCCN)NC(=O)CNC(=O)[C@H](CC(N)=O)NC(=O)[C@H](CCSC)NC2=O [G22R] (H-GVIINVKCKISRQCLEPCKKARMRFGKCMNGKCHCTPK-OH; disulfide 8-28, 14-33, 18-35)
[1]; [3]
  IC50: 0.292 nM
[2]; [4]
  IC50: 0.349 nM

## E16K, K20D (GVIINVKCKISRQCLKPCKDAGMRFGKCMNGKCHCTPK; Definition of Artificial Sequence: Synthetic peptide)
[1]; read-out: WB/IL-2 (IC50)
  IC50: 1.58 nM
[2]; read-out: WB/IFNg (IC50)
  IC50: 1.32 nM

## CC[C@H](C)[C@@H]1NC(=O)[C@H](CCCCN)NC(=O)[C@@H](NC(=O)[C@H](CCCCN)NC(=O)[C@@H](NC(=O)[C@H](CC(N)=O)NC(=O)[C@@H](NC(=O)[C@@H](NC(=O)[C@@H](NC(=O)CN)C(C)C)[C@@H](C)CC)[C@@H](C)CC)C(C)C)CSSC[C@@H]2NC(=O)[C@H](CCCCN)NC(=O)CNC(=O)[C@H](Cc3ccccc3)NC(=O)[C@H](CCCNC(=N)N)NC(=O)[C@H](CCSC)NC(=O)CNC(=O)[C@H](C)NC(=O)[C@H](CCCNC(=N)N)NC(=O)[C@H](CCCCN)NC(=O)[C@@H]3CSSC[C@@H](C(=O)N[C@H](C(=O)N4CCC[C@H]4C(=O)N[C@@H](CCCCN)C(=O)O)[C@@H](C)O)NC(=O)[C@H](Cc4c[nH]cn4)NC(=O)[C@H](CSSC[C@H](NC(=O)[C@H](CCC(N)=O)NC(=O)[C@H](CCCNC(=N)N)NC(=O)[C@H](CO)NC1=O)C(=O)N[C@@H](CC(C)C)C(=O)N[C@@H](CCC(=O)O)C(=O)N1CCC[C@H]1C(=O)N3)NC(=O)[C@H](CCCCN)NC(=O)CNC(=O)[C@H](CC(N)=O)NC(=O)[C@H](CCSC)NC2=O [K20R] (H-GVIINVKCKISRQCLEPCKRAGMRFGKCMNGKCHCTPK-OH; disulfide 8-28, 14-33, 18-35)
[1]; [3]
  IC50: 0.067 nM
[2]; [4]
  IC50: 0.083 nM

## CC[C@H](C)[C@@H]1NC(=O)[C@H](CCCCN)NC(=O)[C@@H](NC(=O)[C@H](CCCCN)NC(=O)[C@H](Cc2cccc3ccccc23)NC(=O)[C@H](CC(N)=O)NC(=O)[C@@H](NC(=O)[C@@H](NC(=O)[C@@H](NC(=O)CN)C(C)C)[C@@H](C)CC)[C@@H](C)CC)CSSC[C@@H]2NC(=O)[C@H](CCCCN)NC(=O)CNC(=O)[C@H](Cc3ccccc3)NC(=O)[C@H](CCCNC(=N)N)NC(=O)[C@H](CCSC)NC(=O)CNC(=O)[C@H](C)NC(=O)[C@H](CCCCN)NC(=O)[C@H](CCCCN)NC(=O)[C@@H]3CSSC[C@@H](C(=O)N[C@H](C(=O)N4CCC[C@H]4C(=O)N[C@@H](CCCCN)C(=O)O)[C@@H](C)O)NC(=O)[C@H](Cc4c[nH]cn4)NC(=O)[C@H](CSSC[C@H](NC(=O)[C@H](CCC(N)=O)NC(=O)[C@H](CCCNC(=N)N)NC(=O)[C@H](CO)NC1=O)C(=O)N[C@@H](CC(C)C)C(=O)N[C@@H](CCC(=O)O)C(=O)N1CCC[C@H]1C(=O)N3)NC(=O)[C@H](CCCCN)NC(=O)CNC(=O)[C@H](CC(N)=O)NC(=O)[C@H](CCSC)NC2=O [V6Nal] (H-GVIIN[1Nal]KCKISRQCLEPCKKAGMRFGKCMNGKCHCTPK-OH; disulfide 8-28, 14-33, 18-35)
[1]; [3]
  IC50: 1.78 nM
[2]; [4]
  IC50: 2.46 nM
